From patent publication US11111243B2, “Azaindole compounds as histone methyltransferase inhibitors” (GLOBAL BLOOD THERAPEUTICS, INC., priority 2017, dated 2021)
Counter-ions that a name gives are not always drawn.

Target: T1, G9a (Homo sapiens, UniProt Q96KQ7)
T1 sequence (Q96KQ7 1-1210): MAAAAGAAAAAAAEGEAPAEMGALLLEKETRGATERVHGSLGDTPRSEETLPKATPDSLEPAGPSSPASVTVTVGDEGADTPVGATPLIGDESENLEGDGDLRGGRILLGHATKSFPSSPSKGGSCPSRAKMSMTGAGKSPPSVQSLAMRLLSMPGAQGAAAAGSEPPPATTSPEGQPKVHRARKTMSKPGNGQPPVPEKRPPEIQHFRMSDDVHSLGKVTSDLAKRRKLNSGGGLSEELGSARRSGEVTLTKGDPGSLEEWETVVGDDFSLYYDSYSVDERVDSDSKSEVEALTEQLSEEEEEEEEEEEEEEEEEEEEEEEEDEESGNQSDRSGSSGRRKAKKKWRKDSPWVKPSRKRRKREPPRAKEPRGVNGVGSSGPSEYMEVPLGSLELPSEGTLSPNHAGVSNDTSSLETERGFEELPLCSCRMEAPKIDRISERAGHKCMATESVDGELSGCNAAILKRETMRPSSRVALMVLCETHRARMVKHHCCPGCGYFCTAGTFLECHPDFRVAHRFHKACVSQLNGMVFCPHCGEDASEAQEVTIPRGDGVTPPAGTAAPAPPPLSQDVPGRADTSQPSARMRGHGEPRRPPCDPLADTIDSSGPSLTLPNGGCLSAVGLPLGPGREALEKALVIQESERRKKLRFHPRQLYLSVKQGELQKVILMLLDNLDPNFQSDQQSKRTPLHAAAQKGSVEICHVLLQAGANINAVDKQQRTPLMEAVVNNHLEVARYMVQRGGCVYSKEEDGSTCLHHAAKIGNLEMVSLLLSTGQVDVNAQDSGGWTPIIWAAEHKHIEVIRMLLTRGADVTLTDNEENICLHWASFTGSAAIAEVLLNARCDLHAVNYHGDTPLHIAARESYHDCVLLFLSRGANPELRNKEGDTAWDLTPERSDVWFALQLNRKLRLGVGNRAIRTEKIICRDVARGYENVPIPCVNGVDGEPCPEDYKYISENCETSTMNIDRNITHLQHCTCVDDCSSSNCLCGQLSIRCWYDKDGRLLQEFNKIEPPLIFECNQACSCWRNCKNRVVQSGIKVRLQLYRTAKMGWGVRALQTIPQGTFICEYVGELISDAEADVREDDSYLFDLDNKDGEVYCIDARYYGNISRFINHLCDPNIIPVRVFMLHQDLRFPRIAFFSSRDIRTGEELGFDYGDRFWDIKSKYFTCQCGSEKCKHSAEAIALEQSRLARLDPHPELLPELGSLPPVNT
Assay: G9a AlphaLISA enzymatic activity assay
Format: biochemical
Settings: 0.15 nM G9a, 10 uM S-adenosyl-methionine, 100 nM biotinylated histone 3 peptide (1-21), 1 h room temperature
Text: The G9a AlphaLISA assay was used to detect the methyl modifications of a biotinylated histone H3 peptide by the compounds. These modifications are done by the histone methyl transferase activity of the G9a enzyme. The assay consists of reading a chemiluminescent signal at 615 nm; this signal is generated by a laser excitation at 680 nm that transfers a reactive singlet oxygen between the donor beads and acceptor beads. Donor beads are streptavidin conjugated and bind to the biotin on the peptide. Acceptor beads are conjugated with an antibody that recognizes the specific G9a methyl mark on the peptide. If there is a methyl mark on the peptide, the acceptor beads will bind to the peptide. Upon binding, the acceptor beads will be in close proximity (<200 nm) of the donor beads and when the donor beads are excited, the transfer of the oxygen can occur and a strong signal will be generated. If there is no methyl mark, the interaction between beads will not occur and signal will be at background levels.
For the assay, the following buffer was used to set up reactions: 50 mM Tris-HCl pH9, 50 mM NaCl, 0.01% Tween-20 and 1 mM DTT (added fresh prior to starting the reactions). The assay is set up by adding a final concentration of 0.15 nM G9a, 10 uM S-adenosyl-methionine and, 100 nM biotinylated histone 3 peptide (1-21). The reaction is incubated at room temperature for 1 h, and subsequently quenched by the addition of the acceptor beads (anti-H3k9me2 AlphaLISA acceptor beads, PerkinElmer #AL117) at a final concentration of 20 ug/mL. The acceptor beads are incubated for 1 h. After 1 h, the donor beads are added at a final concentration of 20 ug/mL (Alpha Streptavidin donor beads, PerkinElmer #6760002). Donor beads are incubated for 0.5 h. Both donor and acceptor beads are resuspended in AlphaLISA 5× Epigenetics Buffer 1 Kit (PerkinElmer #AL008) prior to addition to the reaction. All manipulations and incubations with the donor and acceptor beads are done in subdued light. Signal is detected in an EnVision plate reader in Alpha mode (See ACS Med Chem Lett. 2014 Jan. 2; 5(2):205-9)
Percent inhibition was calculated for each compound dilution and the concentration that produced 50% inhibition was calculated. This value is presented as the IC50.

Structure (SMILES)	IC50 [nM]
CCN(C)CCCOc1cc2[nH]c3ccncc3c2cc1OC [Compound 45, ethyl[3-({8-methoxy-5H-pyrido[4,3-b]indol-7-yl}oxy)propyl]methylamine hydrochloride]	56
CCN(C)CCCOc1cc2[nH]c3ccnc(C4CC4)c3c2cc1OC [Compound 46, [3-({1-cyclopropyl-8-methoxy-5H-pyrido[4,3-b]indol-7-yl}oxy)propyl](ethyl)methylamine hydrochloride]	24
COc1cc2c(cc1OCCCN(C)C)[nH]c1ccnc(C3CC3)c12 [Compound 47, [3-({1-cyclopropyl-8-methoxy-5H-pyrido[4,3-b]indol-7-yl}oxy)propyl]dimethylamine hydrochloride]	9.4
COc1cc2c(cc1OCCCN(C)C)[nH]c1ccnc(C#CC(C)(C)O)c12 [Compound 48, 4-{7-[3-(dimethylamino)propoxy]-8-methoxy-5H-pyrido[4,3-b]indol-1-yl}-2-methylbut-3-yn-2-ol hydrochloride]	1300
COc1cc2c(cc1OCCCN(C)C)[nH]c1ccnc(CCC(C)(C)O)c12 [Compound 49, 4-{7-[3-(dimethylamino)propoxy]-8-methoxy-5H-pyrido[4,3-b]indol-1-yl}-2-methylbutan-2-ol hydrochloride]	45
COc1cc2c(cc1OCCCN(C)C)[nH]c1ccnc(C#CC(C)O)c12 (centres unmarked) [Compound 50, 4-{7-[3-(dimethylamino)propoxy]-8-methoxy-5H-pyrido[4,3-b]indol-1-yl}but-3-yn-2-ol hydrochloride]	690
COc1cc2c(cc1OCCCN(C)C)[nH]c1ccnc(C#CC3CC3)c12 [Compound 51, (3-{[1-(2-cyclopropylethynyl)-8-methoxy-5H-pyrido[4,3-b]indol-7-yl]oxy}propyl)dimethylamine hydrochloride]	470
COc1cc2c(cc1OCCCN(C)C)[nH]c1ccnc(CCC3CC3)c12 [Compound 52, 3-((1-(2-cyclopropylethyl)-8-methoxy-5H-pyrido[4,3-b]indol-7-yl)oxy)-N,N-dimethylpropan-1-amine hydrochloride]	100
COc1cc2c(cc1OCCOCCN(C)C)[nH]c1ccnc(C3CC3)c12 [Compound 53, {2-[2-({1-cyclopropyl-8-methoxy-5H-pyrido[4,3-b]indol-7-yl}oxy)ethoxy]ethyl}dimethylamine hydrochloride]	62
CCCc1nccc2[nH]c3cc(OCCCN(C)C)c(OC)cc3c12 [Compound 55, [3-({8-methoxy-1-propyl-5H-pyrido[4,3-b]indol-7-yl}oxy)propyl]dimethylamine hydrochloride]	18
COc1cc2c(cc1OCCCN(C)C)[nH]c1ccnc(C3CCCC3)c12 [Compound 56, [3-({1-cyclopentyl-8-methoxy-5H-pyrido[4,3-b]indol-7-yl}oxy)propyl]dimethylamine hydrochloride]	15
CCOCCc1nccc2[nH]c3cc(OCCCN(C)C)c(OC)cc3c12 [Compound 57, (3-{[1-(2-ethoxyethyl)-8-methoxy-5H-pyrido[4,3-b]indol-7-yl]oxy}propyl)dimethylamine hydrochloride]	61
COCCCc1nccc2[nH]c3cc(OCCCN(C)C)c(OC)cc3c12 [Compound 58, (3-{[8-methoxy-1-(3-methoxypropyl)-5H-pyrido[4,3-b]indol-7-yl]oxy}propyl)dimethylamine hydrochloride]	86
C#Cc1nccc2[nH]c3cc(OCCCN(C)C)c(OC)cc3c12 [Compound 59, [3-({1-ethynyl-8-methoxy-5H-pyrido[4,3-b]indol-7-yl}oxy)propyl]dimethylamine hydrochloride]	160
COc1cc2c(cc1OCCCN1CCCC1C)[nH]c1ccnc(C3CC3)c12 (centres unmarked) [Compound 60, 1-[3-({1-cyclopropyl-8-methoxy-5H-pyrido[4,3-b]indol-7-yl}oxy)propyl]-2-methylpyrrolidine hydrochloride]	51
COc1cc2c(cc1OCCCN(C(C)C)C(C)C)[nH]c1ccnc(C3CC3)c12 [Compound 61, [3-({1-cyclopropyl-8-methoxy-5H-pyrido[4,3-b]indol-7-yl}oxy)propyl]bis(propan-2-yl)amine hydrochloride]	480
COc1cc2c(cc1OCCCN1CC[C@@H](F)C1)[nH]c1ccnc(C3CC3)c12 [Compound 62, (3R)-1-[3-({1-cyclopropyl-8-methoxy-5H-pyrido[4,3-b]indol-7-yl}oxy)propyl]-3-fluoropyrrolidine hydrochloride]	53
COc1cc2c(cc1OCCCN1CC[C@H](F)C1)[nH]c1ccnc(C3CC3)c12 [Compound 63, (3S)-1-[3-({1-cyclopropyl-8-methoxy-5H-pyrido[4,3-b]indol-7-yl}oxy)propyl]-3-fluoropyrrolidine hydrochloride]	130
COc1cc2c(cc1OCCCN1CCCC1)[nH]c1ccnc(C3=CCOCC3)c12 [Compound 64, 1-(3-{[1-(3,6-dihydro-2H-pyran-4-yl)-8-methoxy-5H-pyrido[4,3-b]indol-7-yl]oxy}propyl)pyrrolidine hydrochloride]	12
COc1cc2c(cc1OCCCN1CCCC1)[nH]c1ccnc(C3CCOCC3)c12 [Compound 65, 1-(3-{[8-methoxy-1-(oxan-4-yl)-5H-pyrido[4,3-b]indol-7-yl]oxy}propyl)pyrrolidine hydrochloride]	8.2
COc1cc2c(cc1OCCCN(C)C)[nH]c1ccnc(C(C)C)c12 [Compound 67, (3-{[8-methoxy-1-(propan-2-yl)-5H-pyrido[4,3-b]indol-7-yl]oxy}propyl)dimethylamine hydrochloride]	9.5
COc1cc2c(cc1OCCCN(C)C)[nH]c1ccnc(C3CCOCC3)c12 [Compound 68, (3-{[8-methoxy-1-(oxan-4-yl)-5H-pyrido[4,3-b]indol-7-yl]oxy}propyl)dimethylamine hydrochloride]	26
COc1cc2c(cc1OCCCN(C)C)[nH]c1ccnc(C3CCC3)c12 [Compound 69, [3-({1-cyclobutyl-8-methoxy-5H-pyrido[4,3-b]indol-7-yl}oxy)propyl]dimethylamine hydrochloride]	30
COc1cc2c(cc1OCCN(C)C)[nH]c1ccncc12 [Compound 70, [2-({8-methoxy-5H-pyrido[4,3-b]indol-7-yl}oxy)ethyl]dimethylamine hydrochloride]	400
COc1cc2c(cc1OCCN1CCCC1)[nH]c1ccncc12 [Compound 71, 1-[2-({8-methoxy-5H-pyrido[4,3-b]indol-7-yl}oxy)ethyl]pyrrolidine hydrochloride]	52
COc1cc2c(cc1OCCCN1CCC1)[nH]c1ccncc12 [Compound 72, 1-[3-({8-methoxy-5H-pyrido[4,3-b]indol-7-yl}oxy)propyl]azetidine hydrochloride]	9.1
